Reference: patent US11267826B2, “Penicillin-binding protein inhibitors” (priority 2017, dated 2022)

How the values were obtained:
S. aureus ATCC 29213 = experiment: Broth microdilution MIC assay, S. aureus; format: cell-based; details: broth microdilution, 16-20 hours at 37° C.; for MIC: Staphylococcus aureus, ATCC29213, read-out: S. aureus 29213 MIC
How it was run: (§1)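 Two-fold serial dilutions tested per CLSI in cation-supplemented Mueller-Hinton broth against S. aureus ATCC 29213 and hyper-permeable E. coli 901C; inoculum 5×10^5 CFU/mL from 3-5 h log-phase culture. Incubated 16-20 h at 37° C; MIC read visually as lowest concentration with no growth.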

E. coli K12 PBP1a/b = experiment: Bocillin FL competition binding assay, PBP1a/1b combined; set-up: species or system Escherichia coli K12; details: 15 min pre-incubation, PBP 1a/1b combined
Method: (§2) To determine the ability of test compounds to bind Penicillin Binding Proteins (PBPs), a competition binding assay using Bocillin FL (fluorescent derivative of penicillin V) was adapted from the classical method used to assess PBP potency of beta-lactams.
(§3) Penicillin binding proteins were isolated from Escherichia coli K12 by growth of Escherichia coli K12 from a single colony in 4 L of Luria-Bertani (LB) broth at 35° C. and 250 rpm to an OD600 nm of 0.5. The cells were harvested by centrifugation at 7,000×g for 10 min. at 4° C. Cells were resuspended and washed in 50 mM potassium phosphate pH 7.5. The cells were re-suspended in sonication buffer [50 mM Tris-HCl pH 7.5, 1 mM MgCl2, 1 mM beta-mercaptoethanol, and 5 μg/mL DNAse I] and sonicated by 4 passes of 30 seconds at 45 W on ice. The sample was clarified by centrifugation at 3,000×g to remove cell debris and unbroken cells and supernatant containing the membrane proteins was retained. The membrane proteins including the PBPs were further purified from soluble constituents by an ultracentrifugation step at 100,000×g for 30 min. at 4° C. The membrane proteins are washed twice with 10 mM sodium phosphate pH 7, resuspended in a volume of 5 mL, quantitated by BCA assay, adjusted to […] and frozen at −80° C. until use.
(§4) The adapted Bocillin FL competition binding method described herein incorporates a 15 min. pre-incubation of test compound with isolated PBPs to attempt to balance the difference in mechanism of inhibition between beta-lactams (largely irreversible covalent bond to active site Serine) and the boron-containing PBP inhibitor test compounds (reversible covalent bond to active site Serine). Briefly, 50 μL reactions consisted of 100 μg's of total membrane protein extracts containing PBPs incubated with a dilution series of test compound ranging from 0.005 μg/mL to 2,480 μg/mL in 10 mM sodium phosphate pH7 containing 350 mM NaCl. Thirty minute reactions at 35° C. were initiated by addition of […] Bocillin FL, quenched by addition of SDS-PAGE loading buffer containing sodium dodecyl sulfate (SDS) and heated for 15 minutes at 95° C. to denature proteins in preparation for SDS-polyacrylamide gel electrophoresis. The Bocillin FL labeled PBPs are then separated by SDS-PAGE in Novex NuPage 10% Bis-Tris pre-cast gels (Invitrogen). The SDS-PAGE gel, post-electrophoresis, is then washed in water to remove excess SDS for 10 minutes at room temperature and placed on the scanning bed of a GE Healthcare/Amersham Biosciences Storm 860 fluorescence scanner. The excitation wavelength is in the blue spectrum at 450 nm and the emission at 520 nm is captured by the instrument. Effective PBP inhibitors are detected by a reduction in Bocillin FL labeling of the particular PBP over the dose range of test compound in a dose-responsive manner. High molecular weight PBP 1a/1b are not resolved by these gels, thus we report HMW PBP binding results in μg/mL for PBPs 1a/1b combined as well as for PBP2 and PBP3.
(§5) Representative results are shown in Table 2, where A represents a potency of >1000 μg/mL, B represents a potency between 64 and 1000 μg/mL inclusive, and C represents a potency of <64 μg/mL. NT=Not Tested.

E. coli PBP2 = target: T1, E. coli PBP2 (Escherichia coli, UniProt P0AD65); experiment: Bocillin FL competition binding assay, PBP2; set-up: species or system Escherichia coli K12; details: 15 min pre-incubation
T1 construct: 100 μg's of total membrane protein extracts containing PBPs; endogenous in cells; host or cells: Escherichia coli K12, membrane protein fraction
T1 sequence (P0AD65 whole entry): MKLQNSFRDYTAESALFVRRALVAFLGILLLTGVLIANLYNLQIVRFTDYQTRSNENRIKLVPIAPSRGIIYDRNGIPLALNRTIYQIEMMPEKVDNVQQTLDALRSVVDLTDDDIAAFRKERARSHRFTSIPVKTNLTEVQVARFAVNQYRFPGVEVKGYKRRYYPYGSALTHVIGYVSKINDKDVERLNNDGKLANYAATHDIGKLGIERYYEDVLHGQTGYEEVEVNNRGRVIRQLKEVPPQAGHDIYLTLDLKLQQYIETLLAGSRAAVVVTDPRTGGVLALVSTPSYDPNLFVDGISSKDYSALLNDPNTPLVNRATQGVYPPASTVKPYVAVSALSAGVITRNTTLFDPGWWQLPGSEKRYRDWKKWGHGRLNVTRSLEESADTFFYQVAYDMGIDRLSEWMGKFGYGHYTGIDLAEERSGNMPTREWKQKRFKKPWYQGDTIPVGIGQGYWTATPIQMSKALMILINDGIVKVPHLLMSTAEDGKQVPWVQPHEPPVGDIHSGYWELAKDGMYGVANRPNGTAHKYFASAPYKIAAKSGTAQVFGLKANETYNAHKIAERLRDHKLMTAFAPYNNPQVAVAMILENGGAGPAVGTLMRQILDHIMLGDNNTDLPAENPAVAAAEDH
Method: as §2, §3, §4, §5

[1] = test system: hyper-permeable E. coli 901C; experiment: Broth microdilution MIC assay, hyper-permeable E. coli; format: cell-based; details: for MIC: Escherichia coli, read-out: E. coli 901C MIC
How it was run: as §1

E. coli PBP3 = target: T2, E. coli PBP3 (Escherichia coli, UniProt P0AD68); experiment: Bocillin FL competition binding assay, PBP3; set-up: species or system Escherichia coli K12; details: 15 min pre-incubation
T2 construct: 100 μg's of total membrane protein extracts containing PBPs; endogenous in cells; host or cells: Escherichia coli K12, membrane protein fraction
T2 sequence (P0AD68 1-577): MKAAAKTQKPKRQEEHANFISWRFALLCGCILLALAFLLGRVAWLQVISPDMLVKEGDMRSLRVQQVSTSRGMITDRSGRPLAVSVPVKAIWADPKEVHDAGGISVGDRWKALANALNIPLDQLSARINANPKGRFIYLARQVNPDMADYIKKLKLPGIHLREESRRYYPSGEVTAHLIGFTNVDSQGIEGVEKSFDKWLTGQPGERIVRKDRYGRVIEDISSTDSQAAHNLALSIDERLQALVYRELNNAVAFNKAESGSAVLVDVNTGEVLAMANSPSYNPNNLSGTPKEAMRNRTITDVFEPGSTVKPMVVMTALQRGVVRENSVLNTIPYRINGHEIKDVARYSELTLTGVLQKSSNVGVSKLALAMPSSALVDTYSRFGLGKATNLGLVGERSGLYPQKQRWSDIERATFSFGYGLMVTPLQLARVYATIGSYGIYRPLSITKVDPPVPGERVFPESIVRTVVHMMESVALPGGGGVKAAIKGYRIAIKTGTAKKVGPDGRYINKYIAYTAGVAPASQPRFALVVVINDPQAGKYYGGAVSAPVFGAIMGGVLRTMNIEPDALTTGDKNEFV
Method: as §2, §3, §4, §5

Row | SMILES | MIC (S. aureus ATCC 29213) | E. coli K12 PBP1a/b Potency (E. coli K12 PBP1a/b) | E. coli PBP2 Potency (E. coli PBP2) | MIC [1] | E. coli PBP3 Potency (E. coli PBP3) | S. aureus 29213 MIC (S. aureus ATCC 29213) | E. coli 901C MIC ([1]; broth microdilution, 16-20 hours at 37° C.)
1 | Nc1nc(/C(=N\O)C(=O)N[C@H]2Cc3cccc(C(=O)O)c3OB2O)cs1 [Example 7, (R,E)-3-(2-(2-aminothiazol-4-yl)-2-(hydroxyimino)acetamido)-2-hydroxy-3,4-dihydro-2H-benzo[e][1,2]oxaborinine-8-carboxylic Acid] | 64 to 128 µg/mL | A (A represents a potency of >1000 μg/mL) | B (B represents a potency between 64 and 1000 μg/mL inclusive) | < 64 µg/mL | A (A represents a potency of >1000 μg/mL) |  | 
2 | NCc1ccc(/C(=N/O)C(=O)N[C@H]2Cc3cccc(C(=O)O)c3OB2O)cc1 [Example 12, (R,Z)-3-(2-(4-(aminomethyl)phenyl)-2-(hydroxyimino)acetamido)-2-hydroxy-3,4-dihydro-2H-benzo[e][1,2]oxaborinine-8-carboxylic Acid] | < 64 µg/mL | B (B represents a potency between 64 and 1000 μg/mL inclusive) | B (B represents a potency between 64 and 1000 μg/mL inclusive) | > 128 µg/mL | B (B represents a potency between 64 and 1000 μg/mL inclusive) |  | 
3 | Nc1nc(/C(=N/O)C(=O)N[C@H]2Cc3cccc(C(=O)O)c3OB2O)c(Cl)s1 [Example 17, (R,Z)-3-(2-(2-amino-5-chlorothiazol-4-yl)-2-(hydroxyimino)acetamido)-2-hydroxy-3,4-dihydro-2H-benzo[e][1,2]oxaborinine-8-carboxylic Acid] | < 64 µg/mL | B (B represents a potency between 64 and 1000 μg/mL inclusive) | B (B represents a potency between 64 and 1000 μg/mL inclusive) | 64 to 128 µg/mL | B (B represents a potency between 64 and 1000 μg/mL inclusive) |  | 
4 | N#CC1CCC(NC(=O)CO/N=C(\C(=O)N[C@H]2Cc3cccc(C(=O)O)c3OB2O)c2csc(N)n2)CC1 (stereo partly drawn) [Example 63, (R)-3-((Z)-2-(2-aminothiazol-4-yl)-2-((2-(((1s,4S)-4-cyanocyclohexyl)amino)-2-oxoethoxy)imino)acetamido)-2-hydroxy-3,4-dihydro-2H-benzo[e][1,2]oxaborinine-8-carboxylic Acid] |  | B (B represents a potency between 64 and 1000 μg/mL inclusive) | B (B represents a potency between 64 and 1000 μg/mL inclusive) |  | C (C represents a potency of <64 μg/mL) |  | 
5 | Nc1nc(/C(=N/OCC(=O)NCCCCCNC(=O)CBr)C(=O)N[C@H]2Cc3cccc(C(=O)O)c3OB2O)cs1 [Example 78, (R,Z)-3-(2-(2-aminothiazol-4-yl)-15-bromo-6,14-dioxo-4-oxa-3,7,13-triazapentadec-2-enamido)-2-hydroxy-3,4-dihydro-2H-benzo[e][1,2]oxaborinine-8-carboxylic Acid] |  | B (B represents a potency between 64 and 1000 μg/mL inclusive) | B (B represents a potency between 64 and 1000 μg/mL inclusive) | > 128 µg/mL | B (B represents a potency between 64 and 1000 μg/mL inclusive) |  | 
6 | CC(=O)NCCO/N=C(\C(=O)N[C@H]1Cc2cccc(C(=O)O)c2OB1O)c1csc(N)n1 [Example 119, (R,Z)-3-(2-((2-acetamidoethoxy)imino)-2-(2-aminothiazol-4-yl)acetamido)-2-hydroxy-3,4-dihydro-2H-benzo[e][1,2]oxaborinine-8-carboxylic Acid] | > 128 µg/mL |  |  | 64 to 128 µg/mL |  |  | 
7 | CS(=O)(=O)NCCO/N=C(\C(=O)N[C@H]1Cc2cccc(C(=O)O)c2OB1O)c1csc(N)n1 [Example 120, (R,Z)-3-(2-(2-aminothiazol-4-yl)-2-((2-(methylsulfonamido)ethoxy)imino)acetamido)-2-hydroxy-3,4-dihydro-2H-benzo[e][1,2]oxaborinine-8-carboxylic Acid] | > 128 µg/mL |  |  | 64 to 128 µg/mL |  |  | 
8 | O=C(N[C@H]1Cc2cccc(C(=O)O)c2OB1O)/C(=N\O)c1csc(NCc2ccccn2)n1 [Example 121, (R,Z)-2-hydroxy-3-(2-(hydroxyimino)-2-(2-((pyridin-2-ylmethyl)amino)thiazol-4-yl)acetamido)-3,4-dihydro-2H-benzo[e][1,2]oxaborinine-8-carboxylic Acid] | < 64 µg/mL |  |  | > 128 µg/mL |  |  | 
9 | O=C(N[C@H]1Cc2cccc(C(=O)O)c2OB1O)/C(=N\O)c1csc(NCCc2ccccn2)n1 [Example 122, (R,Z)-2-hydroxy-3-(2-(hydroxyimino)-2-(2-((2-(pyridin-2-yl)ethyl)amino)thiazol-4-yl)acetamido)-3,4-dihydro-2H-benzo[e][1,2]oxaborinine-8-carboxylic Acid] | < 64 µg/mL |  |  | > 128 µg/mL |  |  | 
10 | O=C(N[C@H]1Cc2cccc(C(=O)O)c2OB1O)/C(=N\O)c1csc(NCCc2ccncc2)n1 [Example 123, (R,Z)-2-hydroxy-3-(2-(hydroxyimino)-2-(2-((2-(pyridin-4-yl)ethyl)amino)thiazol-4-yl)acetamido)-3,4-dihydro-2H-benzo[e][1,2]oxaborinine-8-carboxylic Acid] | < 64 µg/mL |  |  | > 128 µg/mL |  |  | 
11 | O=C(N[C@H]1Cc2cccc(C(=O)O)c2OB1O)/C(=N/O)c1csc(NCCc2ccncc2)n1 [Example 124, (R,E)-2-hydroxy-3-(2-(hydroxyimino)-2-(2-((2-(pyridin-4-yl)ethyl)amino)thiazol-4-yl)acetamido)-3,4-dihydro-2H-benzo[e][1,2]oxaborinine-8-carboxylic Acid] | > 128 µg/mL |  |  | > 128 µg/mL |  |  | 
12 | Cc1cc(C)n2c1C=C1C=CC(CCC(=O)NCCON=C(C(=O)N[C@H]3Cc4cccc(C(=O)O)c4OB3O)c3csc(N)n3)=[N+]1[B-]2(F)F [Example 125, (R)-3-(2-(2-aminothiazol-4-yl)-2-((2-(3-(5,5-difluoro-7,9-dimethyl-5H-4λ^4,5λ^4-dipyrrolo[1,2-c:2′,1′-f][1,3,2]diazaborinin-3-yl)propanamido)ethoxy)imino)acetamido)-2-hydroxy-3,4-dihydro-2H-benzo[e][1,2]oxaborinine-8-carboxylic Acid] |  |  |  |  |  | A (A represents an MIC >128 μg/mL) | A (A represents an MIC >128 μg/mL)
13 | O=C(N[C@H]1Cc2cccc(C(=O)O)c2OB1O)/C(Cn1cncn1)=N\O [Example 126, (R,Z)-2-hydroxy-3-(2-(hydroxyimino)-3-(1H-1,2,4-triazol-1-yl)propanamido)-3,4-dihydro-2H-benzo[e][1,2]oxaborinine-8-carboxylic Acid] | > 128 µg/mL |  |  | > 128 µg/mL |  |  | 
14 | O=C(N[C@H]1Cc2cccc(C(=O)O)c2OB1O)/C(Cn1nccn1)=N\O [Example 127, (R,Z)-2-hydroxy-3-(2-(hydroxyimino)-3-(2H-1,2,3-triazol-2-yl)propanamido)-3,4-dihydro-2H-benzo[e][1,2]oxaborinine-8-carboxylic Acid] | > 128 µg/mL |  |  | > 128 µg/mL |  |  | 
